What all share (assay type): functional
For one experiment, the system named is Spodoptera frugiperda. The experiment can be described thus: Antifeedant activity against Spodoptera frugiperda (fall armyworm) assessed as feeding index at 100 ppm after 18 hr relative to control.
Experiment [1] concerns Spodoptera littoralis. The experiment can be described thus: Phagostimulant activity against Spodoptera littoralis assessed as feeding index at 100 ppm after 18 hr relative to control.
Experiment [2] concerns Spodoptera littoralis. The experiment can be described thus: Antifeedant activity against Spodoptera littoralis assessed as feeding index at 100 ppm after 18 hr relative to control.

Structures are written as SMILES.

`CC(=O)OC[C@]1(C)[C@H]2C[C@H](O)[C@]34C=C(C)[C@H](CC[C@H]3[C@]2(C)CC[C@H]1O)C4`: the AFI with Spodoptera frugiperda is given as 12%.
On to `C=C1C[C@]23C[C@H]1CC[C@H]2[C@]1(C)CC[C@@H](O)[C@](C)(CO)[C@H]1C[C@@H]3O`, for which the FI in the experiment with Spodoptera littoralis [1] was determined as 52. In addition, the AFI with Spodoptera frugiperda is on record as 21%.
Regarding `CC1=C[C@]23C[C@H]1CC[C@H]2[C@]1(C)CCC[C@](C)(CO)[C@H]1C[C@@H]3O`, the AFI in the experiment on Spodoptera frugiperda was determined as 13%; in the experiment on Spodoptera littoralis [2] it was 27%.
Turning to `C=C1C[C@@]23C[C@@H]1CC[C@H]2[C@]1(C)CC[C@@H](O)[C@](C)(COC(C)=O)[C@@H]1C[C@@H]3O` [LINEAROL], the AFI in the experiment on Spodoptera frugiperda turned out to be 8%.
Turning to `C[C@]1(CO)CCC[C@]2(C)[C@H]1C[C@H](O)[C@@]13C[C@@H](CC[C@@H]21)[C@]1(C)O[C@@H]13` [SIDEROXOL], the values for the AFI with Spodoptera frugiperda and in the experiment with Spodoptera littoralis [2] were 54% and 9%, respectively.
